For 16 compounds, inhibition, IC50 and activity results are on record in patent publication US11166942B2 (PRAXIS BIOTECH LLC, priority 2018, dated 2021).

A word on the inhibition: it is the percentage by which the read-out fell short of the control. The IC50 is the concentration at which inhibition is half-maximal.

The test system of one test is ATF4. Kind of test: ATF4 expression inhibition assay (ATF4 5'UTR luciferase reporter, Tg-stressed HEK293T cells). To be noted: Homo sapiens, HEK-293T, 3 h; for inhibition at 0.1 µM: read-out: % ATF4 inhibition at 100 nM; for IC50: read-out: ATF4 inhbition IC50; for inhibition at 1 µM: read-out: % ATF4 inhibition at 1 μM. The class given is cell-based, human. In outline:
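HEK293T stably expressing luciferase fused downstream of human full-length ATF4 5′UTR, stressed with 100 nM thapsigargin plus compound (100 nM or 1 μM; IC50 series 0.1 nM to 1 μM) for 3 h at 37° C. Luminescence normalized to Tg alone (0%) and untreated cells (100% inhibition).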
(In general: A reporter such as luciferase makes a cellular process visible.)

Test [1] relates to Chinese hamster ovary (CHO) cells. Put plainly: Protein translation assay (puromycin labelling, CHO cells). The class given is cell-based. Particulars: Cricetulus griseus, CHO, media alone = 100%. Put shortly:
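CHO cells given compound 2 h at 1 μM (unstressed), or 1 h at 100 nM or 1 μM then co-treated with 300 nM Tg (stressed); 10 μg/ml puromycin pulse 30 min, anti-puromycin western blot with β-actin, densitometry. Normalized to media alone (100%) and, for stressed cells, Tg alone (0%).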

The mark [2] stands for this setting: 100 nM test compound, 100 nM thapsigargin, 3 hours, HEK293T ATF4 luciferase reporter.
[3] abbreviates: 100 nM thapsigargin, 3 hours, HEK293T ATF4 luciferase reporter.
Setting [4] is: 1 μM test compound, 100 nM thapsigargin, 3 hours, HEK293T ATF4 luciferase reporter.
The mark [5] stands for this setting: 2 h, unstressed CHO cells, 1 μM, 2 hours, read-out: % Protein synthesis in unstressed cells (1 μM test compound).
[6] abbreviates: CHO cells stressed with 300 nM Tg, 1 μM compound, Tg alone = 0%, read-out: % Recovery of protein expression (1 μM test compound).

Read-outs that look alike come from different tables or passages of the source.

With `O=C(COc1ccc(Cl)c(F)c1)NN1CCC(NC[C@H](O)COc2ccc(Cl)c(F)c2)CC1` [Compound 53, (S)-2-(4-chloro-3-fluorophenoxy)-N-(4-((3-(4-chloro-3-fluorophenoxy)-2-hydroxypropyl)amino)piperidin-1-yl)acetamide], the inhibition at 0.1 µM with ATF4 (setting [2]) came to 36.1%. Moreover, in the test on ATF4 (setting [3]), the IC50 came out at 268 nM. Further, in the test on ATF4 (setting [4]), the inhibition at 1 µM is 69.8%. The activity at 1 µM in test [1] (setting [5]) was 83.7%; in test [1] (setting [6]) it was 46.2%.
As for `O=C(NN1CCC(NC[C@@H](O)COc2ccc(Cl)c(F)c2)CC1)c1cc2cc(Cl)ccc2o1` [Compound 54], in the test on ATF4, the inhibition at 0.1 µM turned out to be 87.2%, the inhibition at 1 µM stood at 97.2% and the IC50 stood at 1.6 nM. Moreover, in test [1] (setting [5]), the activity at 1 µM was found to be 99.7%. Also, the activity at 1 µM in test [1] (setting [6]) came out at 69.9%.
Take `O=C(NN1CCC(NC[C@H](O)COc2ccc(Cl)c(F)c2)CC1)c1cc2cc(Cl)ccc2o1` [Compound 55, (S)-5-chloro-N-(4-((3-(4-chloro-3-fluorophenoxy)-2-hydroxypropyl)amino)piperidin-1-yl)benzofuran-2-carboxamide]: in the test with ATF4, the inhibition at 0.1 µM was found to be 58.1%, the inhibition at 1 µM turned out to be 80.5% and the IC50 is 102 nM. Also, the activity at 1 µM in test [1] (setting [5]) came to 110%. For the same compound, the activity at 1 µM in test [1] (setting [6]) was found to be 49.6%.
In the case of `O=C(NN1CCC(NC[C@@H](O)COc2ccc(Cl)c(F)c2)CC1)c1ccc2cc(Cl)ccc2n1` [Compound 56, (R)-6-chloro-N-(4-((3-(4-chloro-3-fluorophenoxy)-2-hydroxypropyl)amino)piperidin-1-yl)quinoline-2-carboxamide], in the test on ATF4 (setting [2]), the inhibition at 0.1 µM was 63.4%. Moreover, in the test on ATF4 (setting [3]), the IC50 was found to be 71.7 nM. Further, in the test on ATF4 (setting [4]), the inhibition at 1 µM stood at 75.6%. The activity at 1 µM was 155% in test [1] (setting [5]) and 46.1% in test [1] (setting [6]).
Take `O=C(NN1CCC(NC[C@H](O)COc2ccc(Cl)c(F)c2)CC1)c1ccc2cc(Cl)ccc2n1` [Compound 57, (S)-6-chloro-N-(4-((3-(4-chloro-3-fluorophenoxy)-2-hydroxypropyl)amino)piperidin-1-yl)quinoline-2-carboxamide]: in the test with ATF4 (setting [2]), the inhibition at 0.1 µM is 25.9%. Besides, the IC50 in the test with ATF4 (setting [3]) was above 10000 nM. The inhibition at 1 µM with ATF4 (setting [4]) was determined as 39.8%. The activity at 1 µM worked out at 139% in test [1] (setting [5]) and 69.6% in test [1] (setting [6]).
`O=C(NN1CCN(C[C@H](O)COc2ccc(Cl)c(F)c2)CC1)c1ccc2cc(Cl)ccc2n1` [Compound 59, (S)-6-chloro-N-(4-(3-(4-chloro-3-fluorophenoxy)-2-hydroxypropyl)piperazin-1-yl)quinoline-2-carboxamide]: the inhibition at 0.1 µM with ATF4 (setting [2]) came out at 38.8%. Besides, the IC50 in the test with ATF4 (setting [3]) was 570 nM. Besides, the inhibition at 1 µM in the test on ATF4 (setting [4]) turned out to be 66%. Further, the activity at 1 µM was 180% in test [1] (setting [5]) and 98.7% in test [1] (setting [6]).
For the compound `O=C(NN1CCN(C[C@@H](O)COc2ccc(Cl)c(F)c2)CC1)c1ccc2cc(Cl)ccc2c1` [Compound 60, (R)-6-chloro-N-(4-(3-(4-chloro-3-fluorophenoxy)-2-hydroxypropyl)piperazin-1-yl)-2-naphthamide], in the test on ATF4 (setting [2]), the inhibition at 0.1 µM came out at 92.6%. In addition, the IC50 in the test with ATF4 (setting [3]) stood at 1.5 nM. For the same compound, the inhibition at 1 µM in the test with ATF4 (setting [4]) turned out to be 94.6%. Moreover, the activity at 1 µM in test [1] (setting [5]) was determined as 140%; in test [1] (setting [6]), 126%.
On to `O=C(NN1CCN(C[C@H](O)COc2ccc(Cl)c(F)c2)CC1)c1ccc2cc(Cl)ccc2c1` [Compound 61, (S)-6-chloro-N-(4-(3-(4-chloro-3-fluorophenoxy)-2-hydroxypropyl)piperazin-1-yl)-2-naphthamide], for which the inhibition at 0.1 µM in the test with ATF4 (setting [2]) was 72.4%. Further, in the test on ATF4 (setting [3]), the IC50 was 29.4 nM. Also, in the test with ATF4 (setting [4]), the inhibition at 1 µM was determined as 86.6%. Besides, the activity at 1 µM in test [1] (setting [5]) stood at 195%; in test [1] (setting [6]), 171%.
In the case of `O=C(NN1CCN(C[C@@H](O)COc2ccc(Cl)c(F)c2)CC1)c1ccc(OC(F)(F)F)cc1` [Compound 62, (R)-N-(4-(3-(4-chloro-3-fluorophenoxy)-2-hydroxypropyl)piperazin-1-yl)-4-(trifluoromethoxy)benzamide], the inhibition at 0.1 µM in the test with ATF4 (setting [2]) amounted to 85.9%. In addition, in the test on ATF4 (setting [3]), the IC50 was below 100 nM. Moreover, the inhibition at 1 µM in the test on ATF4 (setting [4]) came out at 88.8%. The activity at 1 µM is 99.5% in test [1] (setting [5]) and 40.2% in test [1] (setting [6]).
Consider `O=C(NN1CCN(C[C@@H](O)COc2ccc(Cl)c(F)c2)CC1)c1ccc(Cl)cc1` [Compound 63, (R)-4-chloro-N-(4-(3-(4-chloro-3-fluorophenoxy)-2-hydroxypropyl)piperazin-1-yl)benzamide], for which, in the test on ATF4 (setting [2]), the inhibition at 0.1 µM was determined as 14.8%. The IC50 with ATF4 (setting [3]) was below 1000 nM. Also, the inhibition at 1 µM in the test on ATF4 (setting [4]) amounted to 84.6%. In addition, the activity at 1 µM came to 107% in test [1] (setting [5]) and 16.4% in test [1] (setting [6]).
Turning to `O=C(NN1CCN(C[C@@H](O)COc2ccc(Cl)c(F)c2)CC1)c1ccc(Cl)cn1` [Compound 64, (R)-5-chloro-N-(4-(3-(4-chloro-3-fluorophenoxy)-2-hydroxypropyl)piperazin-1-yl)picolinamide], the inhibition at 0.1 µM in the test on ATF4 (setting [2]) was 20%. Further, the inhibition at 1 µM in the test on ATF4 (setting [4]) is 56.6%. The activity at 1 µM in test [1] (setting [5]) amounted to 109%; in test [1] (setting [6]), 34.7%.
For `O=C(NN1CCN(C[C@@H](O)COc2ccc(Cl)c(F)c2)CC1)c1ccc(C(F)(F)F)cn1` [Compound 65, (R)-N-(4-(3-(4-chloro-3-fluorophenoxy)-2-hydroxypropyl)piperazin-1-yl)-5-(trifluoromethyl)picolinamide], the inhibition at 0.1 µM with ATF4 (setting [2]) worked out at 22.6%. Also, the IC50 with ATF4 (setting [3]) was below 1000 nM. Moreover, the inhibition at 1 µM in the test with ATF4 (setting [4]) came to 80.5%. In addition, the activity at 1 µM in test [1] (setting [5]) came to 99%; in test [1] (setting [6]) it was 51.1%.
Turning to `O=C(NN1CCN(C[C@@H](O)COc2ccc(Cl)c(F)c2)CC1)c1cnc(C(F)F)cn1` [Compound 66, (R)-N-(4-(3-(4-chloro-3-fluorophenoxy)-2-hydroxypropyl)piperazin-1-yl)-5-(difluoromethyl)pyrazine-2-carboxamide], the inhibition at 0.1 µM in the test with ATF4 (setting [2]) came out at 0%. In the test with ATF4 (setting [3]), the IC50 was above 1000 nM. Moreover, the inhibition at 1 µM with ATF4 (setting [4]) was found to be 0%. Further, the activity at 1 µM was found to be 84.9% in test [1] (setting [5]) and 17.6% in test [1] (setting [6]).
On to `N#Cc1ccc(C(=O)NN2CCN(C[C@@H](O)COc3ccc(Cl)c(F)c3)CC2)nc1` [Compound 67, (R)-N-(4-(3-(4-chloro-3-fluorophenoxy)-2-hydroxypropyl)piperazin-1-yl)-5-cyanopicolinamide], for which, in the test with ATF4 (setting [2]), the inhibition at 0.1 µM was found to be 3.6%. Moreover, in the test on ATF4 (setting [3]), the IC50 was above 1000 nM. Also, in the test with ATF4 (setting [4]), the inhibition at 1 µM came out at 27.8%. The activity at 1 µM stood at 80% in test [1] (setting [5]) and 27.6% in test [1] (setting [6]).
As to `O=C(NN1CCC(NC[C@@H](O)COc2ccc(Cl)c(F)c2)CC1)c1ccc(Cl)cn1` [Compound 68, (R)-5-chloro-N-(4-((3-(4-chloro-3-fluorophenoxy)-2-hydroxypropyl)amino)piperidin-1-yl)picolinamide], in the test with ATF4 (setting [2]), the inhibition at 0.1 µM turned out to be 9%. In addition, the inhibition at 1 µM in the test on ATF4 (setting [4]) was determined as 50.9%. Besides, the activity at 1 µM in test [1] (setting [5]) is 81.8%; in test [1] (setting [6]) it was 49.3%.
For `COc1ccc2oc(C(=O)NN3CCC(NC[C@@H](O)COc4ccc(Cl)c(F)c4)CC3)cc2c1` [Compound 69, (R)-N-(4-((3-(4-chloro-3-fluorophenoxy)-2-hydroxypropyl)amino)piperidin-1-yl)-5-methoxybenzofuran-2-carboxamide], in the test with ATF4 (setting [2]), the inhibition at 0.1 µM is 37%. In addition, the IC50 in the test on ATF4 (setting [3]) is below 1000 nM. In addition, in the test with ATF4 (setting [4]), the inhibition at 1 µM stood at 78.1%. Also, the results for the activity at 1 µM in test [1] (setting [5]) and in test [1] (setting [6]) were 129% and 43.1%, respectively.
